Data: patent US11331327B2, “Antibacterial use of halogenated salicylanilides” (UNION therapeutics A/S, priority 2014, dated 2022)
Converted amounts (≈) assume the structure as drawn. Read-outs that look alike come from different tables or passages of the source.

Test system: S. aureus clinical isolates and S. aureus ATCC 29213
Experiment: MIC assay according to CLSI criteria, Example 2, S. aureus strains
Format: cell-based, Staphylococcus aureus
Conditions: for MIC: Staphylococcus aureus, read-out: MIC
Experimental: Strains were conserved in Luria Bertani (LB) Broth (S. aureus) or Brain Heart Infusion (BHI) (S. pyogenes) supplemented with glycerol 15% (v/v) at −80° C., and reactivated by isolation on LB (S. aureus) or BHI (S. pyogenes) agar plates. Strains were cultivated in Mueller Hinton (MH) Broth-cation adjusted (S. aureus) or BHI (S. pyogenes). All strains were cultivated aerobically (microaerobically for S. pyogenes strains) at 37° C.
Bacterial cultures were stopped in their exponential growth phase and plates were inoculated with the approximate concentration of 5×10^5 cells per well. Plates were incubated at 37° C. for 18 hours (S. aureus) or 24 hours (S. pyogenes).

[1] = ATCC29213, Staphylococcus aureus strains
[2] = S. aureus strains with MIC 0.5 μg/ml

O=C(Nc1ccc([N+](=O)[O-])cc1Cl)c1cc(Cl)ccc1O [Niclosamide, 5-chloro-N-(2-chloro-4-nitrophenyl)-2-hydroxybenz-amide]
MIC50 [1]: 0.25 µg/mL (≈ 0.764 µM) | MIC90 [1]: 0.5 µg/mL (≈ 1.53 µM) | MIC distribution (percentage of strains) [2]: 27% | MIC distribution (ratio of strains) [2]: (55/205) | MIC Range values (Staphylococcus aureus strains): 0.125 to 0.5 µg/mL | MIC (ATCC29213, all targeted S. aureus strains, including resistant strains): ≤ 0.5 µg/mL | MIC (ATCC29213, strain 9-1862936): 0.5 µg/mL (≈ 1.53 µM) | MIC (ATCC29213, strain 9-2625962): 0.5 µg/mL (≈ 1.53 µM) | MIC (ATCC29213, strain 9-2642158): 0.25 µg/mL (≈ 0.764 µM) | MIC (ATCC29213, strain 9-2955245): 0.25 µg/mL (≈ 0.764 µM) | MIC (ATCC29213, strain 9-26422166): 0.5 µg/mL (≈ 1.53 µM) | MIC (ATCC29213, strain 000040C): 0.5 µg/mL (≈ 1.53 µM) | MIC (ATCC29213, strain 000041C): 0.25 µg/mL (≈ 0.764 µM) | MIC (ATCC29213, strain 000274T): 0.25 µg/mL (≈ 0.764 µM) | MIC (ATCC29213, strain 114660U): 0.25 µg/mL (≈ 0.764 µM) | MIC (ATCC29213, strain 115015T): 0.5 µg/mL (≈ 1.53 µM) | MIC (ATCC29213, strain 115242C): 0.5 µg/mL (≈ 1.53 µM) | MIC (ATCC29213, strain 115263C): 0.25 µg/mL (≈ 0.764 µM) | MIC (ATCC29213, strain 115268C): 0.5 µg/mL (≈ 1.53 µM) | MIC (ATCC29213, strain 115273C): 0.5 µg/mL (≈ 1.53 µM) | MIC (ATCC29213, strain 115295C): 0.25 µg/mL (≈ 0.764 µM) | MIC (ATCC29213, strain 115303C): 0.5 µg/mL (≈ 1.53 µM) | MIC (ATCC29213, strain 115370U): 0.25 µg/mL (≈ 0.764 µM) | MIC (ATCC29213, strain 115427C): 0.25 µg/mL (≈ 0.764 µM) | MIC (ATCC29213, strain 115445C): 0.5 µg/mL (≈ 1.53 µM) | MIC (ATCC29213, strain 115561C): 0.25 µg/mL (≈ 0.764 µM) | MIC (ATCC29213, strain 115584D): 0.25 µg/mL (≈ 0.764 µM) | MIC (ATCC29213, strain 115628T): 0.25 µg/mL (≈ 0.764 µM) | MIC (ATCC29213, strain 115690C): 0.25 µg/mL (≈ 0.764 µM) | MIC (ATCC29213, strain 115691T): 0.5 µg/mL (≈ 1.53 µM) | MIC (ATCC29213, strain 115740E): 0.5 µg/mL (≈ 1.53 µM) | MIC (ATCC29213, strain 115810E): 0.25 µg/mL (≈ 0.764 µM) | MIC (ATCC29213, strain 115903T): 0.5 µg/mL (≈ 1.53 µM) | MIC (ATCC29213, strain 116122T): 0.25 µg/mL (≈ 0.764 µM) | MIC (ATCC29213, strain ATCC 29213): 0.5 µg/mL (≈ 1.53 µM) | MIC (ATCC29213, strain E5-1029252): 0.25 µg/mL (≈ 0.764 µM) | MIC (ATCC29213, strain E5-1029558): 0.25 µg/mL (≈ 0.764 µM) | MIC (ATCC29213, strain E5-1030440): 0.25 µg/mL (≈ 0.764 µM) | MIC (ATCC29213, strain E5-1030469): 0.25 µg/mL (≈ 0.764 µM) | MIC (ATCC29213, strain E5-1030472): 0.5 µg/mL (≈ 1.53 µM) | MIC (ATCC29213, strain E5-1030482): 0.125 µg/mL (≈ 0.382 µM) | MIC (ATCC29213, strain E5-1033076 (first line, r202)): 0.5 µg/mL (≈ 1.53 µM) | MIC (ATCC29213, strain E5-1033076 (second line, r203)): 0.5 µg/mL (≈ 1.53 µM) | MIC (ATCC29213, strain E5-1033088): 0.25 µg/mL (≈ 0.764 µM) | MIC (ATCC29213, strain E5-1033091): 0.5 µg/mL (≈ 1.53 µM) | MIC (ATCC29213, strain E5-1035277): 0.5 µg/mL (≈ 1.53 µM) | MIC (ATCC29213, strain E5-1035284): 0.25 µg/mL (≈ 0.764 µM) | MIC (ATCC29213, strain E5-1035775): 0.5 µg/mL (≈ 1.53 µM) | MIC (ATCC29213, strain E5-1035779): 0.5 µg/mL (≈ 1.53 µM) | MIC (ATCC29213, strain E5-1037958): 0.5 µg/mL (≈ 1.53 µM) | MIC (ATCC29213, strain E5-1037971): 0.25 µg/mL (≈ 0.764 µM) | MIC (ATCC29213, strain E5-1038279): 0.5 µg/mL (≈ 1.53 µM) | MIC (ATCC29213, strain E5-1038286): 0.25 µg/mL (≈ 0.764 µM) | MIC (ATCC29213, strain E5-1038294): 0.5 µg/mL (≈ 1.53 µM) | MIC (ATCC29213, strain E5-1039684): 0.5 µg/mL (≈ 1.53 µM) | MIC (ATCC29213, strain E5-1039697): 0.25 µg/mL (≈ 0.764 µM) | MIC (ATCC29213, strain E5-1041977): 0.5 µg/mL (≈ 1.53 µM) | MIC (ATCC29213, strain E5-1041979): 0.5 µg/mL (≈ 1.53 µM) | MIC (ATCC29213, strain E5-1041980): 0.25 µg/mL (≈ 0.764 µM) | MIC (ATCC29213, strain E5-1041987): 0.5 µg/mL (≈ 1.53 µM) | MIC (ATCC29213, strain E5-1043184): 0.5 µg/mL (≈ 1.53 µM) | MIC (ATCC29213, strain E5-1043668): 0.25 µg/mL (≈ 0.764 µM) | MIC (ATCC29213, strain E5-1045179): 0.25 µg/mL (≈ 0.764 µM) | MIC (ATCC29213, strain E5-1046019): 0.25 µg/mL (≈ 0.764 µM) | MIC (ATCC29213, strain E5-1046020): 0.5 µg/mL (≈ 1.53 µM) | MIC (ATCC29213, strain E5-1046039): 0.25 µg/mL (≈ 0.764 µM) | MIC (ATCC29213, strain E5-1046070): 0.25 µg/mL (≈ 0.764 µM) | MIC (ATCC29213, strain E5-1046074): 0.25 µg/mL (≈ 0.764 µM) | MIC (ATCC29213, strain E5-1046085): 0.5 µg/mL (≈ 1.53 µM) | MIC (ATCC29213, strain E5-1046096): 0.5 µg/mL (≈ 1.53 µM) | MIC (ATCC29213, strain E5-1046296): 0.5 µg/mL (≈ 1.53 µM) | MIC (ATCC29213, strain E5-1046297): 0.5 µg/mL (≈ 1.53 µM) | MIC (ATCC29213, strain E5-1046298): 0.25 µg/mL (≈ 0.764 µM) | MIC (ATCC29213, strain E5-1046723): 0.25 µg/mL (≈ 0.764 µM) | MIC (ATCC29213, strain E5-1047585): 0.25 µg/mL (≈ 0.764 µM) | MIC (ATCC29213, strain E5-1047606): 0.5 µg/mL (≈ 1.53 µM) | MIC (ATCC29213, strain E5-1047924): 0.5 µg/mL (≈ 1.53 µM) | MIC (ATCC29213, strain E5-1048204): 0.25 µg/mL (≈ 0.764 µM) | MIC (ATCC29213, strain E5-1048428): 0.25 µg/mL (≈ 0.764 µM) | MIC (ATCC29213, strain E5-1048654): 0.25 µg/mL (≈ 0.764 µM) | MIC (ATCC29213, strain E5-1048670): 0.125 µg/mL (≈ 0.382 µM) | MIC (ATCC29213, strain EEFIC 01): 0.25 µg/mL (≈ 0.764 µM) | MIC (ATCC29213, strain EEFIC 02): 0.25 µg/mL (≈ 0.764 µM) | MIC (ATCC29213, strain K000772): 0.25 µg/mL (≈ 0.764 µM) | MIC (ATCC29213, strain K000796): 0.25 µg/mL (≈ 0.764 µM) | MIC (ATCC29213, strain K000863): 0.25 µg/mL (≈ 0.764 µM) | MIC (ATCC29213, strain K000864): 0.25 µg/mL (≈ 0.764 µM) | MIC (ATCC29213, strain K000866): 0.25 µg/mL (≈ 0.764 µM) | MIC (ATCC29213, strain K115498): 0.25 µg/mL (≈ 0.764 µM) | MIC (ATCC29213, strain K115688): 0.25 µg/mL (≈ 0.764 µM) | MIC (ATCC29213, strain K115689): 0.25 µg/mL (≈ 0.764 µM) | MIC (ATCC29213, strain R000019): 0.5 µg/mL (≈ 1.53 µM) | MIC (ATCC29213, strain R000020): 0.5 µg/mL (≈ 1.53 µM) | MIC (ATCC29213, strain R000024): 0.25 µg/mL (≈ 0.764 µM) | MIC (ATCC29213, strain U115579): 0.25 µg/mL (≈ 0.764 µM) | MIC (ATCC 29213 / MRSA, strain MRSA 01): 0.25 µg/mL (≈ 0.764 µM) | MIC (ATCC 29213 / MRSA, strain MRSA 02): 0.25 µg/mL (≈ 0.764 µM) | MIC (ATCC 29213 / MRSA, strain MRSA 03): 0.25 µg/mL (≈ 0.764 µM) | MIC (ATCC 29213 / MRSA, strain MRSA 04): 0.25 µg/mL (≈ 0.764 µM) | MIC (ATCC 29213 / MRSA, strain MRSA 05): 0.25 µg/mL (≈ 0.764 µM) | MIC (ATCC 29213 / MRSA, strain MRSA 06): 0.25 µg/mL (≈ 0.764 µM) | MIC (ATCC 29213 / MRSA, strain MRSA 07): 0.125 µg/mL (≈ 0.382 µM) | MIC (ATCC 29213 / MRSA, strain MRSA 08): 0.25 µg/mL (≈ 0.764 µM) | MIC (ATCC 29213 / MRSA, strain MRSA 09): 0.125 µg/mL (≈ 0.382 µM) | MIC (ATCC 29213 / MRSA, strain MRSA 10): 0.25 µg/mL (≈ 0.764 µM) | MIC (ATCC 29213 / MRSA, strain MRSA 11): 0.25 µg/mL (≈ 0.764 µM)
